Laboratory results from the NIST ThermoML archive (doi:10.1016/j.fluid.2018.08.017).

Experiment: wn = mass fraction of the nth substance listed
Details: 101 kPa, Liquid; for speed of sound: Single path-length method; for mass density: Vibrating tube method

CN1CCCC1=O [N-methylpyrrolidone] + CCCCn1cc[n+](C)c1.F[B-](F)(F)F
Details	mass density [kg/m3]	speed of sound [m/s]	viscosity [mPa·s]
293.15 K, w2 = 0	1034.1	1565.7	1.786
293.15 K, w2 = 0.0986	1052.7	1579.2	2.568
293.15 K, w2 = 0.2498	1077.9	1582	3.938
293.15 K, w2 = 0.4971	1119.5	1585.5	9.374
293.15 K, w2 = 0.7413	1160.6	1580.1	27.49
298.15 K, w2 = 0	1029.7	1546.1	1.693
298.15 K, w2 = 0.0986	1048.4	1560.5	2.33
298.15 K, w2 = 0.2498	1073.7	1564.5	3.528
298.15 K, w2 = 0.4971	1115.5	1570.1	8.144
298.15 K, w2 = 0.7413	1156.8	1566.6	22.73
303.15 K, w2 = 0	1025.2	1526.7	1.564
303.15 K, w2 = 0.0986	1044	1541.8	2.129
303.15 K, w2 = 0.2498	1069.5	1546.8	3.18
303.15 K, w2 = 0.4971	1111.5	1554.5	7.116
303.15 K, w2 = 0.7413	1153	1552.8	19.07
308.15 K, w2 = 0	1020.8	1507.5	1.448
308.15 K, w2 = 0.0986	1039.7	1523.2	1.953
308.15 K, w2 = 0.2498	1065.4	1529.4	2.884
308.15 K, w2 = 0.4971	1107.5	1539	6.257
308.15 K, w2 = 0.7413	1149.2	1539.2	16.26
313.15 K, w2 = 0	1016.3	1488.3	1.346
313.15 K, w2 = 0.0986	1035.4	1504.8	1.798
313.15 K, w2 = 0.2498	1061.2	1512	2.627
313.15 K, w2 = 0.4971	1103.5	1523.7	5.544
313.15 K, w2 = 0.7413	1145.4	1525.6	13.88
318.15 K, w2 = 0	1011.9	1469.2	1.258
318.15 K, w2 = 0.0986	1031	1486.6	1.662
318.15 K, w2 = 0.2498	1057	1494.8	2.405
318.15 K, w2 = 0.4971	1099.5	1508.4	4.948
318.15 K, w2 = 0.7413	1141.7	1512.2	12.04
323.15 K, w2 = 0	1007.4	1450.4	1.176
323.15 K, w2 = 0.0986	1026.6	1468.4	1.542
323.15 K, w2 = 0.2498	1052.8	1478	2.214
323.15 K, w2 = 0.4971	1095.5	1493.2	4.444
323.15 K, w2 = 0.7413	1137.9	1498.9	10.54
328.15 K, w2 = 0	1002.9	1431.4	1.103
328.15 K, w2 = 0.0986	1022.3	1450.5	1.435
328.15 K, w2 = 0.2498	1048.6	1461.1	2.043
328.15 K, w2 = 0.4971	1091.6	1478.1	4.015
328.15 K, w2 = 0.7413	1134.2	1485.6	9.281
333.15 K, w2 = 0	998.4	1412.8	1.037
333.15 K, w2 = 0.0986	1018	1432.6	1.341
333.15 K, w2 = 0.2498	1044.4	1444.4	1.892
333.15 K, w2 = 0.4971	1087.6	1463.2	3.636
333.15 K, w2 = 0.7413	1130.5	1472.4	8.224
338.15 K, w2 = 0	993.9	1394.4	0.9769
338.15 K, w2 = 0.0986	1013.6	1414.6	1.258
338.15 K, w2 = 0.2498	1040.2	1427.8	1.76
338.15 K, w2 = 0.4971	1083.6	1448.1	3.34
338.15 K, w2 = 0.7413	1126.7	1459.3	7.318
343.15 K, w2 = 0	989.4	1376	0.923
343.15 K, w2 = 0.0986	1009.2	1396.4	1.182
343.15 K, w2 = 0.2498	1036	1411.3	1.641
343.15 K, w2 = 0.4971	1079.6	1432.9	3.064
343.15 K, w2 = 0.7413	1123	1445.8	6.555
